Source: patent US12252524B2, “GIP/GLP1 co-agonist compounds” (Eli Lilly and Company, priority 2018, dated 2025)
Numbered stars: 1 amine (or outer) side, 2 acyl side, 3 side chain; on linkers, the order of the positions; unused ones are H or OH. Square brackets hold non-standard residues; d marks the D form. Side chains are listed from the residue outwards. Peptide text beside a SMILES is read from it. * marks the point of attachment. C20 diacid = O=C(O)CCCCCCCCCCCCCCCCCCC(=O)*; C18 diacid = O=C(O)CCCCCCCCCCCCCCCCC(=O)*; αMePhe(2-F) = C[C@](N)(Cc1ccccc1F)C(=O)O; γGlu = O=C(O)[C@H](CCC(=O)[*:2])N[*:1]; 4Pal = N[C@@H](Cc1ccncc1)C(=O)O; αMeL = CC(C)C[C@](C)(N)C(=O)O; Orn = NCCC[C@H](N)C(=O)O; AEEA = NCCOCCOCC(=O)O; Aib = CC(C)(N)C(=O)O

Assays:
human GLP-1R = human GLP-1R (Homo sapiens, UniProt P43220); test: [125I]-GLP-1 binding (SPA), human GLP-1 receptor; parameters: expressed in transfected cells; crude membranes; conditions: read-out: hGLP1R Ki, (nM) (SEM, n)
In short: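 Ki values are geometric means with SEM over independent replicates on different days, derived from IC50s fitted by four-parameter nonlinear regression. The assay used crude cell membranes in HEPES buffer, pH 7.4, containing CaCl2, MgCl2, bacitracin and TWEEN-20.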

human GIP receptor = target: T1, human GIP receptor (Homo sapiens, UniProt P48546); test: [125I]-GIP binding (SPA), human GIP receptor; conditions: read-out: hGIPR Ki, nM (SEM, n)
T1 construct: expressed in transfected cells; crude membranes
T1 sequence (P48546 22-466): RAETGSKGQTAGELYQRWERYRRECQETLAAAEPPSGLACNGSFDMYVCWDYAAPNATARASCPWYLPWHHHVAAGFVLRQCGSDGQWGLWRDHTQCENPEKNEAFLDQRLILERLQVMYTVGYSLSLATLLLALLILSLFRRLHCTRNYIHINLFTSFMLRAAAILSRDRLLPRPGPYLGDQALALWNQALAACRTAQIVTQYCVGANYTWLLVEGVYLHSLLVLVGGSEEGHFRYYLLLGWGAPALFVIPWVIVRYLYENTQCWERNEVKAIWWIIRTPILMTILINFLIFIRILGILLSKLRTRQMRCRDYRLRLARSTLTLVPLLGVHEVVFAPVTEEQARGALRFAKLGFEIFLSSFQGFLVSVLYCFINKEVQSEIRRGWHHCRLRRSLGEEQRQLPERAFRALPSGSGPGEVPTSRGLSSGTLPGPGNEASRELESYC

[1] = target: human GLP-1 receptor (GLP-1R) (Homo sapiens, UniProt P43220); test: cAMP pharmacological functional assay in presence of casein, hGLP-1R; type: cell-based; conditions: HEK293 cells expressing hGLP-1R, 0.1% Casein, geometric mean; read-out: hGLP1R cAMP Rel EC50 nM (SEM, n)
[2] = target: T2, gastric inhibitory peptide receptor (GIPR) (Homo sapiens, UniProt P48546); test: cAMP pharmacological functional assay in presence of casein, hGIPR; type: cell-based; conditions: HEK293 cells expressing hGIPR, 0.1% Casein, geometric mean; read-out: hGIPR cAMP Rel EC50 nM (SEM, n)
T2 sequence (P48546 22-466): T1 sequence (P48546 22-466)

human Gcg receptor = target: T3, human Gcg receptor (Homo sapiens, UniProt P47871); test: [125I]-Glucagon binding (SPA), human Gcg receptor; conditions: read-out: hGLcgR Ki, nM (SEM, n)
T3 construct: expressed in transfected cells; crude membranes
In short: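 Scintillation counts are taken after membranes and WGA beads incubate and settle for 12 hours at room temperature. Buffer is 25 mM HEPES, pH 7.4, with CaCl2, MgCl2, bacitracin and Tween-20. Ki values, from four-parameter IC50 fits, are geometric means over independent days.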

T3 sequence (P47871 26-477): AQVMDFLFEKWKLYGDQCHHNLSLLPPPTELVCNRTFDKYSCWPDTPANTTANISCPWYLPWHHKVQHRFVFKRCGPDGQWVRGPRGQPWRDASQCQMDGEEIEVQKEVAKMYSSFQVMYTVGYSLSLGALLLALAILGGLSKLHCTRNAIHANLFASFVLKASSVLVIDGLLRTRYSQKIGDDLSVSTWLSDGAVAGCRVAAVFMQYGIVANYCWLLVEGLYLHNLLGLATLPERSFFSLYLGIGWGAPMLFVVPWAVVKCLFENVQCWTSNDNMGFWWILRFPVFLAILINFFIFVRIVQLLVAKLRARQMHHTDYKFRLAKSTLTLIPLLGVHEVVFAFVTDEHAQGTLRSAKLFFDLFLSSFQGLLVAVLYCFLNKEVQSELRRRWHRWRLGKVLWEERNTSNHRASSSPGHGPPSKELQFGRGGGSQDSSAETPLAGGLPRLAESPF
human GLP-1R, sequence (P43220 24-463): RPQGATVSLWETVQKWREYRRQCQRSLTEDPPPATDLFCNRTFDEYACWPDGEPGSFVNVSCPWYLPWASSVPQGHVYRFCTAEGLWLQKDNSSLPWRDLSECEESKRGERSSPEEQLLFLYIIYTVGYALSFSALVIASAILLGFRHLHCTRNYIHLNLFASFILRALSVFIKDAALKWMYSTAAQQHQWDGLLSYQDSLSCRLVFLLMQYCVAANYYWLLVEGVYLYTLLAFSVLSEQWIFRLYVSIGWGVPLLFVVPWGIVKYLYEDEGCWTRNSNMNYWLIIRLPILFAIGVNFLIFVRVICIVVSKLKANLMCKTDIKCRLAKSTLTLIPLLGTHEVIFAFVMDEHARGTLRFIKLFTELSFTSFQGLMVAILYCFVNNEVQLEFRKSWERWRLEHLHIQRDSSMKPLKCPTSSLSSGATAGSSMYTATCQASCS
human GLP-1 receptor (GLP-1R), sequence (P43220 24-463): as above

For CC[C@H](C)[C@H](NC(=O)[C@H](CC(C)C)NC(=O)[C@H](Cc1ccc(O)cc1)NC(=O)[C@H](CCC(=O)O)NC(=O)[C@@H](NC(=O)[C@H](Cc1ccccc1)NC(=O)[C@H](C)NC(=O)[C@H](Cc1c[nH]cn1)NC(=O)[C@H](CCC(N)=O)NC(=O)[C@H](C)NC(=O)[C@H](CCCCNC(=O)COCCOCCNC(=O)COCCOCCNC(=O)CC[C@H](NC(=O)CCCCCCCCCCCCCCCCCCC(=O)O)C(=O)O)NC(=O)[C@H](CCCCN)NC(=O)[C@H](CC(=O)O)NC(=O)[C@H](CC(C)C)NC(=O)[C@](C)(CC(C)C)NC(=O)[C@@H](NC(=O)[C@H](CO)NC(=O)[C@H](Cc1ccc(O)cc1)NC(=O)[C@H](CC(=O)O)NC(=O)[C@H](CO)NC(=O)[C@@H](NC(=O)[C@H](Cc1ccccc1)NC(=O)[C@@H](NC(=O)CNC(=O)[C@H](CCC(=O)O)NC(=O)C(C)(C)NC(=O)[C@@H](N)Cc1c[nH]cn1)[C@@H](C)O)[C@@H](C)O)[C@@H](C)CC)[C@@H](C)CC)C(=O)N[C@@H](CCC(=O)O)C(=O)NCC(=O)NCC(=O)N1CCC[C@H]1C(=O)N[C@@H](CO)C(=O)N[C@@H](CO)C(=O)NCC(=O)N[C@@H](C)C(=O)N1CCC[C@H]1C(=O)N1CCC[C@H]1C(=O)N1CCC[C@H]1C(=O)N[C@@H](CO)C(N)=O [Example 54] (H-H[Aib]EGTFTSDYSI[αMeL]LDKK([AEEA-AEEA-γGlu-C20 diacid])AQHAFIEYLIEGGPSSGAPPPS-NH2), the Ki (human GLP-1R) was 1.66 nM, the Ki (human GIP receptor) was 0.965 nM and the EC50 [1] was 0.0242 nM. It also gave an EC50 [2] of 1.57 nM and a Ki (human Gcg receptor) of 333 nM.

CC[C@H](C)[C@H](NC(=O)[C@H](CC(C)C)NC(=O)[C@H](Cc1ccc(O)cc1)NC(=O)[C@H](CCC(=O)O)NC(=O)[C@@H](NC(=O)[C@H](Cc1ccccc1)NC(=O)[C@H](C)NC(=O)C(C)(C)NC(=O)[C@H](CCC(N)=O)NC(=O)[C@H](C)NC(=O)[C@H](CCCCNC(=O)COCCOCCNC(=O)COCCOCCNC(=O)CC[C@H](NC(=O)CCCCCCCCCCCCCCCCCCC(=O)O)C(=O)O)NC(=O)[C@H](CCCCN)NC(=O)[C@H](CC(=O)O)NC(=O)[C@H](CC(C)C)NC(=O)[C@H](CC(C)C)NC(=O)[C@@H](NC(=O)[C@H](CO)NC(=O)[C@H](Cc1ccc(O)cc1)NC(=O)[C@H](CC(=O)O)NC(=O)[C@H](CO)NC(=O)[C@@H](NC(=O)[C@H](Cc1ccccc1)NC(=O)[C@@H](NC(=O)CNC(=O)[C@H](CCC(=O)O)NC(=O)[C@H](C)NC(=O)[C@@H](Cc1ccc(O)cc1)NC(C)=O)[C@@H](C)O)[C@@H](C)O)[C@@H](C)CC)[C@@H](C)CC)C(=O)N[C@@H](CCC(=O)O)C(=O)NCC(=O)NCC(=O)N1CCC[C@H]1C(=O)N[C@@H](CO)C(=O)N[C@@H](CO)C(=O)NCC(=O)N[C@@H](C)C(=O)N1CCC[C@H]1C(=O)N1CCC[C@H]1C(=O)N1CCC[C@H]1C(=O)N[C@@H](CO)C(N)=O [Example 79] was tested, and the Ki (human GLP-1R) was 2.69 nM, the Ki (human GIP receptor) was 0.0313 nM and the EC50 [1] was 2.02 nM. For the same compound, the EC50 [2] was 0.0732 nM and the Ki (human Gcg receptor) was 429 nM.

Work on CC[C@H](C)[C@H](NC(=O)[C@H](CCCCN)NC(=O)[C@H](CC(=O)O)NC(=O)[C@H](CCCCNC(=O)COCCOCCNC(=O)COCCOCCNC(=O)CC[C@H](NC(=O)CCCCCCCCCCCCCCCCCCC(=O)O)C(=O)O)NC(=O)[C@H](CC(C)C)NC(=O)[C@@H](NC(=O)[C@H](CO)NC(=O)[C@H](Cc1ccc(O)cc1)NC(=O)[C@H](CC(=O)O)NC(=O)[C@H](CO)NC(=O)[C@@H](NC(=O)[C@H](Cc1ccccc1)NC(=O)[C@@H](NC(=O)CNC(=O)[C@H](CCC(=O)O)NC(=O)C(C)(C)NC(=O)[C@@H](N)Cc1ccc(O)cc1)[C@@H](C)O)[C@@H](C)O)[C@@H](C)CC)C(=O)N[C@@H](C)C(=O)N[C@@H](CCC(N)=O)C(=O)NC(C)(C)C(=O)N[C@@H](C)C(=O)N[C@@H](Cc1ccccc1)C(=O)N[C@H](C(=O)N[C@@H](CCC(=O)O)C(=O)N[C@@H](Cc1ccc(O)cc1)C(=O)N[C@@H](CC(C)C)C(=O)N[C@H](C(=O)N[C@@H](CCC(=O)O)C(=O)NCC(=O)NCC(=O)N1CCC[C@H]1C(=O)N[C@@H](CO)C(=O)N[C@@H](CO)C(=O)NCC(=O)N[C@@H](C)C(=O)N1CCC[C@H]1C(=O)N1CCC[C@H]1C(=O)N1CCC[C@H]1C(=O)N[C@@H](CO)C(N)=O)[C@@H](C)CC)[C@@H](C)CC [Example 27] (H-Y[Aib]EGTFTSDYSILK([AEEA-AEEA-γGlu-C20 diacid])DKIAQ[Aib]AFIEYLIEGGPSSGAPPPS-NH2) yielded a Ki (human GLP-1R) of 3.68 nM, a Ki (human GIP receptor) of 0.103 nM and an EC50 [1] of 0.557 nM. The EC50 [2] was 0.0789 nM and the Ki (human Gcg receptor) was 315 nM.

For CC[C@H](C)[C@H](NC(=O)[C@H](CC(C)C)NC(=O)[C@H](Cc1ccc(O)cc1)NC(=O)[C@@H](CCC(=O)O)NC(=O)[C@@H](NC(=O)[C@H](Cc1ccccc1)NC(=O)[C@H](CCC(=O)O)NC(=O)C(C)(C)NC(=O)[C@H](CCC(N)=O)NC(=O)[C@H](C)NC(=O)[C@H](CCCCNC(=O)COCCOCCNC(=O)COCCOCCNC(=O)CC[C@H](NC(=O)CCCCCCCCCCCCCCCCC(=O)O)C(=O)O)NC(=O)[C@H](CCCN)NC(=O)[C@H](CC(=O)O)NC(=O)[C@H](CC(C)C)NC(=O)[C@](C)(CC(C)C)NC(=O)[C@@H](NC(=O)[C@H](CO)NC(=O)[C@H](Cc1ccncc1)NC(=O)[C@H](CC(=O)O)NC(=O)[C@H](CO)NC(=O)[C@@H](NC(=O)[C@](C)(Cc1ccccc1F)NC(=O)[C@@H](NC(=O)CNC(=O)[C@H](CCC(=O)O)NC(=O)C(C)(C)NC(=O)[C@@H](N)Cc1ccc(O)cc1)[C@@H](C)O)[C@@H](C)O)[C@@H](C)CC)[C@@H](C)CC)C(=O)N[C@@H](CCC(=O)O)C(=O)NCC(=O)NCC(=O)N1CCC[C@H]1C(=O)N[C@@H](CO)C(=O)N[C@@H](CO)C(=O)NCC(=O)N[C@@H](C)C(=O)N1CCC[C@H]1C(=O)N1CCC[C@H]1C(=O)N1CCC[C@H]1C(=O)N[C@@H](CO)C(N)=O [Example 232] (H-Y[Aib]EGT[αMePhe(2-F)]TSD[4Pal]SI[αMeL]LD[Orn]K([AEEA-AEEA-γGlu-C18 diacid])AQ[Aib]EFI[dE]YLIEGGPSSGAPPPS-NH2), the Ki (human GLP-1R) was 5.62 nM, the Ki (human GIP receptor) was 0.0544 nM and the EC50 [1] was 0.0724 nM. The EC50 [2] was 0.027 nM and the Ki (human Gcg receptor) was greater than 1150 nM.

In the case of CC[C@H](C)[C@H](NC(=O)[C@H](CC(C)C)NC(=O)[C@H](Cc1ccc(O)cc1)NC(=O)[C@H](CCC(=O)O)NC(=O)[C@@H](NC(=O)[C@H](Cc1ccccc1)NC(=O)[C@H](C)NC(=O)C(C)(C)NC(=O)[C@H](CCC(N)=O)NC(=O)[C@H](C)NC(=O)[C@H](CCCCNC(=O)COCCOCCNC(=O)COCCOCCNC(=O)CC[C@H](NC(=O)CCCCCCCCCCCCCCCCCCC(=O)O)C(=O)O)NC(=O)C(C)(C)NC(=O)[C@H](CC(=O)O)NC(=O)[C@H](CC(C)C)NC(=O)[C@](C)(CC(C)C)NC(=O)[C@@H](NC(=O)[C@H](CO)NC(=O)[C@H](Cc1ccc(O)cc1)NC(=O)[C@H](CC(=O)O)NC(=O)[C@H](CO)NC(=O)[C@@H](NC(=O)[C@H](Cc1ccccc1)NC(=O)[C@@H](NC(=O)CNC(=O)[C@H](CCC(=O)O)NC(=O)C(C)(C)NC(=O)[C@@H](N)Cc1ccc(O)cc1)[C@@H](C)O)[C@@H](C)O)[C@@H](C)CC)[C@@H](C)CC)C(=O)N[C@@H](CCC(=O)O)C(=O)NCC(=O)NCC(=O)N1CCC[C@H]1C(=O)N[C@@H](CO)C(=O)N[C@@H](CO)C(=O)NCC(=O)N[C@@H](C)C(=O)N1CCC[C@H]1C(=O)N1CCC[C@H]1C(=O)N1CCC[C@H]1C(=O)N[C@@H](CO)C(N)=O [Example 60] (H-Y[Aib]EGTFTSDYSI[αMeL]LD[Aib]K([AEEA-AEEA-γGlu-C20 diacid])AQ[Aib]AFIEYLIEGGPSSGAPPPS-NH2), the Ki (human GLP-1R) is reported as 9.55 nM, the Ki (human GIP receptor) is reported as 0.0655 nM and the EC50 [1] is reported as 0.287 nM. For the same compound, the EC50 [2] was 0.135 nM and the Ki (human Gcg receptor) was 237 nM.
